The source of these data is patent publication US20250197428A1, “INHIBITORS OF KIF18A AND USES THEREOF” (ACCENT THERAPEUTICS, INC., priority 2022, published 2025).

Series [1] is described as follows: In vivo pharmacokinetic evaluation in mouse. Set-up: species or system female balb/c nude mice.
The test system of series [2] is human megakaryocyte (CFU-MK) progenitors from human bone marrow mononuclear cells. Briefly: Human megakaryocyte progenitor colony formation assay (CFU-MK). It counts as cell-based. Conditions: 336 h, 14 days culture, adjusted for binding to assay buffer, read-out: Free-fraction adjusted CFU-MK IC50.
Series [3] is described as follows: Caco-2 permeation assay, bidirectional permeability. The series is classed as in vitro ADME. Conditions: human, Caco-2, pH 7.4, 5 μM, Papp(B-A)/Papp(A-B). In short, it runs like this:
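Bidirectional A→B and B→A transport of 5 μM compound in HBSS (10 mM HEPES, pH 7.4), receiver containing 2% BSA, 2 h at 37 °C on 14-day monolayers. Papp from LC-MS/MS peak areas; efflux ratio Papp(B-A)/Papp(A-B), plus recovery. Lucifer Yellow leakage <1% required for monolayer acceptance.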
Background: Caco-2 cells form a polarised layer with tight junctions and transporters.

For series [4], the system named is OVCAR-3 cells. Briefly: In vitro anti-proliferative activity assay in cancer cell line OVCAR-3 (CellTiter-Glo, 4- or 7-day). The series is classed as cell-based. The note with it: Homo sapiens, OVCAR-3, 96 h, 4-day assay; read-out: OVCAR-3 cellular antiproliferation assay IC50. A general note: ATP-based viability assays read luminescence as a measure of living cells.

Series [5] can be described thus: Tolerability (body weight) in 28 day OVCAR-3 xenograft study. It counts as in vivo. Conditions: all concentrations dosed, 28 day treatment.

As to `Cc1cc(NC(=O)c2ccc(NS(=O)(=O)CCO)cc2N2CC[C@@]3(C(F)F)C[C@H]3C2)nc(N2CCC(F)(F)CC2)n1` (single isomer, unassigned) [Example 29b], in series [1] (3 mg/kg IV), the “IV Clearance” value is 3.3 mL/ming/kg. Besides, in series [1] (female, balb/c nude, plasma, 3 mg/kg IV, read-out: IV Vss), the Vd amounted to 0.97 L/kg. This molecule also had a Cmax in series [1] (female, balb/c nude, plasma, 10 mg/kg PO) of 4700 ng/mL. Moreover, the half-life in series [1] (female, balb/c nude, plasma, 10 mg/kg PO, read-out: PO T1/2 (converted)) is 3.7 h. Moreover, the IC50 in series [2] is 110 nM; in series [4] it was < 100 nM. The efflux ratio at 2 h, 5 μM in series [3] is ≥ 10. Moreover, the “Tolerability based on body weight” value in series [5] was “well tolerated”.

As usually defined, the Cmax is the highest concentration seen after dosing. Broadly, the efflux ratio is the permeability from basolateral to apical divided by that in the opposite direction, in the common usage.
